From US8859541B2, “6-alkynylpyridines” (Boehringer Ingelheim International GmbH, priority 2012, dated 2014)
pIC50: −log10 of the molar value.

What was measured:
[1] = molecular target: T1, cIAP1 BIR3 (Homo sapiens, UniProt Q13490); assay: cIAP1 BIR3 binding assay (DELFIA), displacement of SMAC peptide; conditions: GST-fusion BIR3 domain (aa 256 to 363) 10 nM, SMAC peptide 10 nM; activity of the (S)-isomers
T1 construct: covering amino acids 256 to 363; cIAP1 BIR3; made in house; host or cells: E. coli
T1 sequence (Q13490 256-363): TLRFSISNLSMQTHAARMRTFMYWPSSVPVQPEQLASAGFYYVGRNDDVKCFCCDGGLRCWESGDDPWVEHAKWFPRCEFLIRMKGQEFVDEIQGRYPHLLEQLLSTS
Description: Biological Methods XIAP BIR3 and cIAP1 BIR3 Binding Assays (DELFIA)
Peptide […]-Lys(Biotin), representing the N-terminus of mature human SMAC (SMAC peptide), was used as interaction partner in the protein-peptide interaction assay.
BIR3 domains (10 nM) were incubated with SMAC peptide (10 nM) in Assay Buffer (50 mM Tris, 120 mM NaCl, 0.1% BSA, 1 mM DTT, 0.05% TritonX100) for one hour at room temperature in the presence of inhibitiory compounds. The assay mixture was transferred to a strepatvidin coated plate and incubated for one hour at room temperature to allow binding of the biotinylated peptide and associated BIR3 domains to the plate. After several washing steps Eu labeled anti-GST antibody (e.g. Perkin Elmer DELFIA Eu-N1-antiGST AD0250) was added to detect BIR3 domain-SMAC peptide interactions according to Perkin Elmer's instructions. […] Time resolved Europium fluoresecence was measured in a Wallac Victor using Standard assay settings.
DELFIA assay results were plotted against compound concentrations and Software GraphPad Prizm was used to calculate half maximal inhibitory concentrations (IC50 values).

[2] = molecular target: T2, XIAP BIR3 (Homo sapiens, UniProt P98170); assay: XIAP BIR3 binding assay (DELFIA), displacement of SMAC peptide; conditions: GST-fusion BIR3 domain (aa 241 to 356) 10 nM, SMAC peptide 10 nM; activity of the (S)-isomers
T2 construct: covering amino acids 241 to 356; XIAP BIR3; made in house; host or cells: E. coli
T2 sequence (P98170 241-356): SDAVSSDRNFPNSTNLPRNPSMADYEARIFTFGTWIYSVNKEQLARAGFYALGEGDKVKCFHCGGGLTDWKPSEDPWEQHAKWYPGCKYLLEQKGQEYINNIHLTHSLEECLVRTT
How it was run: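 Each BIR3 domain (10 nM) incubated with biotinylated N-terminal SMAC peptide (10 nM) and compound for 1 h at room temp in Tris/NaCl buffer with BSA, DTT and Triton X-100. Captured on streptavidin plates; bound BIR3 detected by Eu-labelled anti-GST time-resolved fluorescence, giving IC50 values.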

Row | SMILES | pIC50 [1] | pIC50 [2]
1 | CNC(C)C(=O)Nc1ccc(-c2c(C)nc3ccccn23)c(C#Cc2ccc3c(c2)CCO3)n1 (centres unmarked) [Example 69, N-[6-[2-(2,3-dihydro-1-benzofuran-5-yl)ethynyl]-5-(2-methylimidazo[1,2-a]pyridin-3-yl)pyridin-2-yl]-2-(methyl-amino)propanamide] | 8.70 | 6.96
2 | CNC(C)C(=O)Nc1ccc(-c2c(C)nc3ccccn23)c(C#Cc2cc3ccccc3o2)n1 (centres unmarked) [Example 70, N-[6-[2-(1-benzofuran-2-yl)-ethynyl]-5-(2-methyl-imidazo[1,2-a]pyridin-3-yl)-pyridin-2-yl]-2-(methylamino)-propanamide] | 9.00 | 7.18
3 | CNC(C)C(=O)Nc1ccc(-c2c(C)nc3ccccn23)c(C#Cc2ccc3c(OC)nccc3c2)n1 (centres unmarked) [Example 77, N-[6-[2-(1-methoxyisoquinolin-6-yl)ethynyl]-5-(2-methyl-imidazo[1,2-a]pyridin-3-yl)-pyridin-2-yl]-2-(methylamino)-propanamide] | 9.00 | 6.71
4 | CNC(C)C(=O)Nc1ccc(-c2c(-c3ccncc3)nc3cc(C)ccn23)c(C#Cc2ccc(F)c3ncccc23)n1 (centres unmarked) [Example 78, N-[6-[2-(8-fluoroquinolin-5-yl)-ethynyl]-5-(7-methyl-2-pyridin-4-ylimidazo[1,2-a]pyridin-3-yl)-pyridin-2-yl]-2-(methylamino)-propanamide] | 8.70 | 7.33
5 | CNC(C)C(=O)Nc1ccc(-c2c(-c3ccncc3)nc3cc(C)ccn23)c(C#Cc2ccc(-c3ccon3)cc2)n1 (centres unmarked) [Example 82, 2-(methylamino)-N-[5-(7-methyl-2-pyridin-4-ylimidazo[1,2-a]pyridin-3-yl)-6-[2-[4-(1,2-oxazol-3-yl)phenyl]-ethynyl]pyridin-2-yl]propan-amide] | 9.00 | 7.21
6 | CNC(C)C(=O)Nc1ccc(-c2c(C)nc3ccccn23)c(C#Cc2ccc(-n3ccnc3)cc2)n1 (centres unmarked) [Example 88, N-[6-[2-(4-imidazol-1-ylphenyl)ethynyl]-5-(2-methyl-imidazo[1,2-a]pyridin-3-yl)-pyridin-2-yl]-2-(methylamino)-propanamide] | 9.00 | 6.68
7 | CNC(C)C(=O)Nc1ccc(-c2c(C)nc3ccccn23)c(C#Cc2cccc3ncccc23)n1 (centres unmarked) [Example 89, 2-(methylamino)-N-[5-(2-methylimidazo[1,2-a]pyridin-3-yl)-6-(2-quinolin-5-ylethynyl)-pyridin-2-yl]propanamide] | 8.70 | 7.04
8 | CNC(C)C(=O)Nc1ccc(-c2c(C)nc3ccccn23)c(C#Cc2ccc(-n3cccn3)cc2)n1 (centres unmarked) [Example 90, 2-(methylamino)-N-[5-(2-methylimidazo[1,2-a]pyridin-3-yl)-6-[2-(4-pyrazol-1-ylphenyl)-ethynyl]pyridin-2-yl]propan-amide] | 9.00 | 6.78
9 | CNC(C)C(=O)Nc1ccc(-c2c(C)nc3ccccn23)c(C#Cc2cc(C)nc3c(F)cccc23)n1 (centres unmarked) [Example 92, N-[6-[2-(8-fluoro-2-methylquinolin-4-yl)ethynyl]-5-(2-methylimidazo[1,2-a]pyridin-3-yl)pyridin-2-yl]-2-(methyl-amino)propanamide] | 9.00 | 6.76
10 | CNC(C)C(=O)Nc1ccc(-c2c(C)nc3ccccn23)c(C#Cc2ccnc3c(F)cccc23)n1 (centres unmarked) [Example 93, N-[6-[2-(8-fluoroquinolin-4-yl)-ethynyl]-5-(2-methyl-imidazo[1,2-a]pyridin-3-yl)-pyridin-2-yl]-2-(methylamino)-propanamide] | 9.00 | 6.70
11 | CNC(C)C(=O)Nc1ccc(-c2c(-c3ccncc3)nc3cc(C)ccn23)c(C#Cc2ccc3c(c2)OCC(=O)N3C)n1 (centres unmarked) [Example 94, 2-(methylamino)-N-[6-[2-(4-methyl-3-oxo-1,4-benzoxazin-7-yl)ethynyl]-5-(7-methyl-2-pyridin-4-ylimidazo[1,2-a]-pyridin-3-yl)pyridin-2-yl]-propanamide] | 9.00 | 6.97
12 | CNC(C)C(=O)Nc1ccc(-c2c(-c3ccncc3)nc3cc(C)ccn23)c(C#Cc2ccc3nccn3c2)n1 (centres unmarked) [Example 95, N-[6-(2-imidazo[1,2-a]pyridin-6-ylethynyl)-5-(7-methyl-2-pyridin-4-ylimidazo[1,2-a]-pyridin-3-yl)pyridin-2-yl]-2-(methylamino)propanamide] | 9.00 | 7.01
13 | CNC(C)C(=O)Nc1ccc(-c2c(-c3ccncc3)nc3cc(C)ccn23)c(C#Cc2ccc(OC)c3ncccc23)n1 (centres unmarked) [Example 96, N-[6-[2-(8-methoxyquinolin-5-yl)ethynyl]-5-(7-methyl-2-pyridin-4-ylimidazo[1,2-a]-pyridin-3-yl)pyridin-2-yl]-2-(methylamino)propanamide] | 9.00 | 7.08
14 | CC(N)C(=O)Nc1ccc(-c2cncc(Oc3ccccc3)c2)c(C#Cc2ccccc2)n1 (centres unmarked) [Example 100, 2-amino-N-[5-(5-phenoxypyridin-3-yl)-6-(2-phenylethynyl)pyridin-2-yl]propanamide] | 6.49 | 6.34
15 | Cc1ccccc1-c1ccc(NC(=O)C(C)N)nc1C#Cc1ccccc1 (centres unmarked) [Example 108, 2-amino-N-[5-(2-methylphenyl)-6-(2-phenylethynyl)pyridin-2-yl]-propanamide] | 6.76 | 5.79
16 | CC(N)C(=O)Nc1ccc(-c2cccc(C#N)c2)c(C#Cc2ccccc2)n1 (centres unmarked) [Example 113, 2-amino-N-[5-(3-cyanophenyl)-6-(2-phenylethynyl)pyridin-2-yl]-propanamide] | 7.17 | 6.64
17 | CNC(C)C(=O)Nc1ccc(-c2cccc(NC(C)=O)c2)c(C#Cc2ccccc2)n1 (centres unmarked) [Example 118, N-[5-(3-acetamidophenyl)-6-(2-phenylethynyl)pyridin-2-yl]-2-(methylamino)propanamide] | 7.04 | 6.54

Continued, values first:

Row | pIC50 [1] | pIC50 [2] | SMILES
18 | 9.00 | 6.52 | CNC(C)C(=O)Nc1ccc(-c2c(C)nc3ccccn23)c(C#Cc2ccc3c(c2)oc(=O)n3C)n1 (centres unmarked) [Example 71, 2-(methylamino)-N-[5-(2-methylimidazo[1,2-a]pyridin-3-yl)-6-[2-(3-methyl-2-oxo-1,3-benzoxazol-6-yl)ethynyl]-pyridin-2-yl]propanamide]
19 | 9.00 | 6.84 | CNC(C)C(=O)Nc1ccc(-c2c(C)nc3ccccn23)c(C#Cc2ccc3nn(C)cc3c2)n1 (centres unmarked) [Example 72, 2-(methylamino)-N-[5-(2-methylimidazo[1,2-a]pyridin-3-yl)-6-[2-(2-methylindazol-5-yl)-ethynyl]pyridin-2-yl]propan-amide]
20 | 9.00 | 6.76 | CNC(C)C(=O)Nc1ccc(-c2c(C)nc3ccccn23)c(C#Cc2ccc3oc(=O)n(C)c3c2)n1 (centres unmarked) [Example 74, 2-(methylamino)-N-[5-(2-methylimidazo[1,2-a]pyridin-3-yl)-6-[2-(3-methyl-2-oxo-1,3-benzoxazol-5-yl)ethynyl]-pyridin-2-yl]propanamide]
21 | 9.00 | 5.78 | CNC(C)C(=O)Nc1ccc(-c2c(C)nc(N(C)C)nc2C)c(C#Cc2ccc3c(ccc(=O)n3C)c2)n1 (centres unmarked) [Example 75, N-[5-[2-(dimethylamino)-4,6-dimethylpyrimidin-5-yl]-6-[2-(1-methyl-2-oxoquinolin-6-yl)-ethynyl]pyridin-2-yl]-2-(methyl-amino)propanamide]
22 | 9.00 | 5.62 | CNC(C)C(=O)Nc1ccc(-c2c(C)nc(N3CCCC3)nc2C)c(C#Cc2ccc3c(ccc(=O)n3C)c2)n1 (centres unmarked) [Example 79, N-[5-(4,6-dimethyl-2-pyrrolidin-1-ylpyrimidin-5-yl)-6-[2-(1-methyl-2-oxoquinolin-6-yl)-ethynyl]pyridin-2-yl]-2-(methyl-amino)propanamide]
23 | 9.00 | 5.88 | CNC(C)C(=O)Nc1ccc(-c2c(C)nc(N3CCCC3)nc2C)c(C#Cc2ccc3ncccc3c2)n1 (centres unmarked) [Example 80, N-[5-(4,6-dimethyl-2-pyrrolidin-1-ylpyrimidin-5-yl)-6-(2-quinolin-6-ylethynyl)pyridin-2-yl]-2-(methylamino)propan-amide]
24 | 9.00 | 6.60 | CNC(C)C(=O)Nc1ccc(-c2c(-c3ccncc3)nc3cc(C)ccn23)c(C#Cc2ccc3c(ccc(=O)n3C)c2)n1 (centres unmarked) [Example 81, 2-(methylamino)-N-[6-[2-(1-methyl-2-oxoquinolin-6-yl)-ethynyl]-5-(7-methyl-2-pyridin-4-ylimidazo[1,2-a]pyridin-3-yl)-pyridin-2-yl]propanamide]
25 | 9.00 | 5.84 | CNC(C)C(=O)Nc1ccc(-c2c(C)nc(N3CCOCC3)nc2C)c(C#Cc2ccc3c(c2)CC(=O)N3C)n1 (centres unmarked) [Example 87, N-[5-(4,6-dimethyl-2-morpholin-4-ylpyrimidin-5-yl)-6-[2-(1-methyl-2-oxo-3H-indol-5-yl)ethynyl]pyridin-2-yl]-2-(methylamino)propanamide]
